Test results: patent publication US20210221785A1, “AMINO-PYRIMIDONYL DERIVATIVES, A PROCESS FOR THEIR PREPARATION AND PHARMACEUTICAL COMPOSITIONS CONTAINING THEM” (LES LABORATOIRES SERVIER, priority 2018, published 2021)

Assays:
[1] = target: T1, His-His-USP7 (aa208-560, |C315A|) (Homo sapiens, UniProt Q93009, C315A); assay: Evaluation of the inhibition of USP7 by the Fluorescence Intensity (FLINT) readings; format: biochemical; settings: 0.25 nM His-His-USP7, compound incubated 60 minutes at 30° C., 500 nM Ubiquitin-Rhodamine-110 substrate; 50% reduction in kinetic rate
T1 construct: His-His-USP7 (aa208-560, |C315A|); His-His (N)
T1 sequence (Q93009 208-560 C315A): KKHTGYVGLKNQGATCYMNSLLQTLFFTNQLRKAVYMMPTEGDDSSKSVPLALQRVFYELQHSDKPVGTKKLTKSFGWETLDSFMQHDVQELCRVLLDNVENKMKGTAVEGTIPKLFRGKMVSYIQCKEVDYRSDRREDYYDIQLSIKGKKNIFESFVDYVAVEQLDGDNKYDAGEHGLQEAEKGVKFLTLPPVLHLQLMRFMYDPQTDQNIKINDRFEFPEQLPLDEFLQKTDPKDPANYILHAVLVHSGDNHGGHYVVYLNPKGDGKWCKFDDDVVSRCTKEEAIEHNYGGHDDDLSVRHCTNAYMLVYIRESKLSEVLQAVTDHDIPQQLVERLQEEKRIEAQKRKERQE
Summary of the method: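 IC50 reflects 50% reduction in kinetic rate of rhodamine-110 release (Ex485/Em535, reads every 3 min over 21 min), normalised to DMSO and no-enzyme controls, from an 11-point 4-parameter fit. Substrate is 500 nM Ub-Rh110, added after 60 min, 30 °C preincubation of compound with 0.25 nM USP7 aa208–560 C315A. Buffer is Bicine pH 8.0 with 10% DMSO.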

[2] = system: Z138 mantle cell lymphoma tumour cell lines; assay: In vitro cytotoxicity, MTT assay; format: cell-based; settings: Z138 cells exposed to the test compounds for 96 hours, cell viability vs DMSO treated cells
Summary of the method: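 Z138 cells exposed to compounds for 96 hours, then MTT added for 4 hours. Viable cells quantified from formazan absorbance at 540 nm.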

Structure (SMILES) | IC50 [1] | IC50 ([2]; Homo sapiens, Z-138, 96 h) | IC50 [2]
CC(C)(C)NCc1ccc(Oc2ncn(CC3(O)CCN(C(=O)[C@@H]4CCC(F)(F)C[C@H]4c4ccccc4)CC3)c(=O)c2N)cc1 [Example 75, 5-amino-6-{4-[(tert-butylamino)methyl]phenoxy}-3-({1-[(1R,2R)-4,4-difluoro-2-phenylcyclohexane-1-carbonyl]-4-hydroxypiperidin-4-yl}methyl)pyrimidin-4(3H)-one] | 10 nM | 0.184 µM | 
Nc1c(Oc2ccc(F)cc2)ncn(CC2(O)CCN(C(=O)[C@@H]3CC[C@@](F)(C#Cc4cncnc4)C[C@H]3c3ccccc3)CC2)c1=O [Example 140, 5-amino-3-({1-[(1R,2R,4S)-4-fluoro-2-phenyl-4-[2-(pyrimidin-5-yl)ethynyl]cyclohexanecarbonyl]-4-hydroxypiperidin-4-yl}methyl)-6-(4-fluorophenoxy)-3,4-dihydropyrimidin-1-one] | 69.1 nM | 0.0498 µM | 
Nc1cccc(C#C[C@@]2(F)CC[C@@H](C(=O)N3CC[C@](O)(Cn4cnc(Oc5ccc(F)cc5)c(N)c4=O)C(F)(F)C3)[C@H](c3ccccc3)C2)n1 [Example 163, 5-amino-3-{[(4S)-1-[(1R,2R,4R)-4-[2-(6-aminopyridin-2-yl)ethynyl]-4-fluoro-2-phenylcyclohexanecarbonyl]-3,3-difluoro-4-hydroxypiperidin-4-yl]methyl}-6-(4-fluorophenoxy)-3,4-dihydropyrimidin-4-one] | 52.4 nM | 0.0277 µM | 
Cn1ccnc1C#C[C@]1(F)CC[C@@H](C(=O)N2CCC(O)(Cn3cnc(Oc4ccc(F)cc4)c(N)c3=O)CC2)[C@H](c2ccccc2)C1 [Example 152] | 30.3 nM | 0.268 µM | 
Nc1c(Oc2ccc(F)cc2)ncn(C[C@@]2(O)CCN(C(=O)[C@@H]3CCC(F)(F)C[C@H]3c3ccccc3)CC2(F)F)c1=O [Example 78, 5-amino-3-({(4S)-1-[(1R,2R)-4,4-difluoro-2-phenylcyclohexane-1-carbonyl]-3,3-difluoro-4-hydroxypiperidin-4-yl}methyl)-6-(4-fluorophenoxy)pyrimidin-4(3H)-one] | 57.5 nM | 0.115 µM | 
Nc1c(Oc2ccc(F)cc2)ncn(CC2(O)CCN(C(=O)[C@@H]3CCC(F)(F)C[C@H]3c3ccsc3)CC2)c1=O [Example 89, 5-amino-3-({1-[(1R,2R)-4,4-difluoro-2-(thiophen-3-yl)cyclohexane-1-carbonyl]-4-hydroxypiperidin-4-yl}methyl)-6-(4-fluorophenoxy)pyrimidin-4(3H)-one] | 92 nM | 0.055 µM | 
Nc1c(Oc2ccc(F)c(O)c2)ncn(C[C@@]2(O)CCN(C(=O)[C@@H]3CCC(F)(F)C[C@H]3c3ccccc3)CC2(F)F)c1=O [Example 109, 5-amino-3-({(4S)-1-[(1R,2R)-4,4-fluoro-2-phenylcyclohexane-1-carbonyl]-3,3-difluoro-4-hydroxypiperidin-4-yl}methyl)-6-(4-fluoro-3-hydroxyphenoxy)pyrimidin-4(3H)-one] | 40.3 nM |  | 0.0155 µM
Nc1c(Oc2ccc(F)cc2)ncn(CC2(O)CCN(C(=O)[C@@H]3CC[C@](F)(C#Cc4cc(F)ccn4)C[C@H]3c3ccccc3)CC2)c1=O [Example 157, 5-amino-3-({1-[(1R,2R,4R)-4-fluoro-4-[2-(4-fluoropyridin-2-yl)ethynyl]-2-phenylcyclohexanecarbonyl]-4-hydroxypiperidin-4-yl}methyl)-6-(4-fluorophenoxy)-3,4-dihydropyrimidin-4-one] | 6.77 nM | 0.00716 µM | 
Nc1c(Oc2ccc(CO)cc2)ncn(CC2(O)CCN(C(=O)[C@@H]3CCC(F)(F)C[C@H]3c3ccccc3)CC2)c1=O [Example 23, 5-amino-3-({1-[(1R,2R)-4,4-difluoro-2-phenylcyclohexane-1-carbonyl]-4-hydroxypiperidin-4-yl}methyl)-6-[4-(hydroymethyl)phenoxy]pyrimidin-4(3H)-one] | 40 nM | 0.22 µM | 
Nc1c(Oc2ccc(F)c(CO)c2)ncn(CC2(O)CCN(C(=O)[C@@H]3CCC(F)(F)C[C@H]3c3ccccc3)CC2)c1=O [Example 118, 5-amino-3-({1-[(1R,2R)-4,4-difluoro-2-phenylcyclohexane-1-carbonyl]-4-hydroxypiperidin-4-yl}methyl)-6-[4-fluoro-3-(hydroxymethyl)phenoxy]pyrimidin-4(3H)-one] | 33.1 nM | 0.0413 µM | 
CC(C)c1ccc(Oc2ncn(CC3(O)CCN(C(=O)[C@@H]4CCC(F)(F)C[C@H]4c4ccccc4)CC3)c(=O)c2N)cc1O [Example 120, 5-amino-3-({1-[(1R,2R)-4,4-difluoro-2-phenylcyclohexane-1-carbonyl]-4-hydroxypiperidin-4-yl}methyl)-6-[3-hydroxy-4-(propan-2-yl)phenoxy]pyrimidin-4(3H)-one] | 16.3 nM | 0.103 µM | 
Nc1c(Oc2ccc(F)cc2)ncn(CC2(O)CCN(C(=O)[C@@H]3CC[C@@](O)(Cc4ccccc4)C[C@H]3c3ccccc3)CC2)c1=O (relative stereo) [Example 95, rel-5-amino-3-({1-[(1R,2R,4S)-4-benzyl-4-hydroxy-2-phenyl-cyclohexanecarbonyl]-4-hydroxypiperidin-4-yl}methyl)-6-(4-fluorophenoxy)-3,4-dihydropyrimidin-4-one] | 172 nM | 0.253 µM | 
CCc1cc(Oc2ncn(CC3(O)CCN(C(=O)[C@@H]4CCC(F)(F)C[C@H]4c4ccccc4)CC3)c(=O)c2N)ccc1Cl [Example 42, 5-amino-6-(4-chloro-3-ethylphenoxy)-3-({1-[(1R,2R)-4,4-difluoro-2-phenylcyclohexane-1-carbonyl]-4-hydroxypiperidin-4-yl}methyl)pyrimidin-4(3H)-one] | 89.7 nM | 0.169 µM | 
Nc1c(Oc2ccc(F)cc2)ncn(CC2(O)CCN(C(=O)[C@@H]3CC[C@](F)(C#Cc4cccnn4)C[C@H]3c3ccccc3)CC2)c1=O [Example 145, 5-amino-3-[(1-{[(1R,2R,4R)-4-fluoro-2-phenyl-4-[2-(pyridazin-3-yl)ethynyl]cyclohexyl]carbonyl}-4-hydroxypiperidin-4-yl)methyl]-6-(4-fluorophenoxy)pyrimidin-4-one] | 8.66 nM | 0.00231 µM | 
Cc1cnnc(C#C[C@@]2(F)CC[C@@H](C(=O)N3CC[C@](O)(Cn4cnc(Oc5ccc(F)cc5)c(N)c4=O)C(F)(F)C3)[C@H](c3ccccc3)C2)c1 [Example 172, 5-amino-3-{[(4S)-3,3-difluoro-1-[(1R,2R,4R)-4-fluoro-4-[2-(5-methylpyridazin-3-yl)ethynyl]-2-phenylcyclohexanecarbonyl]-4-hydroxypiperidin-4-yl]methyl}-6-(4-fluorophenoxy)-3,4-dihydropyrimidin-4-one] | 5.5 nM | 0.00501 µM | 
Nc1c(Oc2ccc(C3CCCCN3)cc2)ncn(CC2(O)CCN(C(=O)[C@@H]3CCC(F)(F)C[C@H]3c3ccccc3)CC2)c1=O (stereo partly drawn) [Example 121, 5-amino-3-({1-[(1R,2R)-4,4-difluoro-2-phenylcyclohexane-1-carbonyl]-4-hydroxypiperidin-4-yl}methyl)-6-[4-(piperidin-2-yl)phenoxy]pyrimidin-4(3H)-one] | 3.08 nM | 0.546 µM | 
Cc1cnc(C#C[C@]2(F)CC[C@@H](C(=O)N3CCC(O)(Cn4cnc(Oc5ccc(F)cc5)c(N)c4=O)CC3)[C@H](c3ccccc3)C2)cn1 [Example 151, 5-amino-3-({1-[(1R,2R,4S)-4-fluoro-4-[2-(5-methylpyrazin-2-yl)ethynyl]-2-phenylcyclohexanecarbonyl]-4-hydroxypiperidin-4-yl}methyl)-6-(4-fluorophenoxy)-3,4-dihydropyrimidin-4-one] | 11.4 nM | 0.0191 µM | 
